Here are results for seven compounds from patent publication US6528510B1, “HIV protease inhibitors” (Warner-Lambert Company, priority 1998, dated 2003).

Like-named read-outs stand apart in the source and are kept apart here. Some results are limits rather than exact numbers.

One may read the EC50 as the midpoint of the concentration-response curve. As usually defined, the Ki is the dissociation constant of the complex between target and ligand, obtained from inhibition or displacement.

The test system of one data set is uninfected CEM cells. As to the kind of experiment: Cellular toxicity in uninfected CEM cells, XTT (TC50). As to the method: (§1) Compound concentrations were 0.32, 1, 3.2, 10, 32, and 100 uM.
For orientation: Formazan colour is commonly taken as a measure of viable cells.

Data set [1] relates to HIV infected lymphocyte derived CEM cells. As to the kind of experiment: Cellular infection assay in CEM cells, XTT cytopathic procedure (EC50). The settings on record: for TI (therapeutic index, TC50/EC50): CEM cells; for EC50: read-out: Antiviral Efficacy EC50. The procedure: as §1
Data set [2] addresses T1, Recombinant HIV-1 protease (Human immunodeficiency virus type 1 group M subtype B, UniProt P04585).
T1 construct: Recombinant HIV-1 protease (>96% purity); purchased Bachem Bioscience, Inc. (King of Prussia, Pa.)
As to the kind of experiment: HIV protease assay (Ki determination, HPLC readout of substrate III cleavage). It is filed as biochemical.

The nature of data set [3]: Dog blood levels after oral dosing. It is filed as in vivo. The settings on record: plasma, dogs, oral dose of 10 mg/kg; for half-life: read-out: T 1/2 (half life) (converted). The procedure: (§2) The procedure for pharmacokinetics analysis in dogs and rats was similar. For dog studies, two dogs received a single oral 10 mg/kg dose of the HIV protease inhibitor as a solution. The protease inhibitor was dissolve in 0.1N NaOH followed by buffering or diluting with isotonic phosphate buffer or water depending on solubility. For rat studies. two male rats received a single oral 10 mg/kg gavage dose of the HIV protease inhibitor suspended in 0.5% methylcellulose. For the IV administration, the compounds were dissolved in 0.1N sodium hydroxide at a concentration of 10 mg/ml. The IV dose was given bolus. Blood samples were collected prior to dosing and at 0.25, 0.5, 1, 1.5, 2, 3, 4, 8, 12, and 24 hours postdose. Plasma samples were analyzed for the HIV protease inhibitor using a HPLC procedure. The method involved plasma protein precipitation with acetonitrile, reverse-phase chromatographic separation of the HIV protease inhibitor and internal standard, and quantitation by UV detection. Some plasma samples were concentrated by evaporation prior to injection. Pharmacokinetic parameters were determined by noncompartmental analysis of individual rat-plasma concentration-time curves using WinNonlin. Maximum concentration (Cmax) and time for these to occur (tmax) were recorded as observed. Area under concentration-time curve (AUC) values were obtained using the linear trapezoidal rule.

A short description of data set [4]: Cellular toxicity in uninfected CEM cells, XTT (TC50). The settings on record: human, uninfected CEM cells (lymphocyte derived). As to the method: as §1
The nature of data set [5]: Rat blood levels after oral dosing. Type of data set: in vivo. The settings on record: male, plasma, rats, oral dose of 10 mg/kg; for Cmax: read-out: Cmax (maximum concentration reached within the plasma); for half-life: read-out: T 1/2 (half life) (converted). The procedure: as §2
Data set [6] can be described thus: Mouse blood levels after oral dosing. It is filed as in vivo, Charles River CD-1 mice. Conditions: CD-1, mouse, plasma, mice, oral dose of 25 mg/kg; for Cmax: read-out: Cmax (maximum concentration reached within the plasma); for half-life: read-out: T 1/2 (half life) (converted). The procedure: Charles River CD-1 mice were dosed with a 25 mg/kg drug solution orally by gavage. For oral dosing the compounds were dissolved in 0.1N NaOH (20% final volume) and then 0.5% methylcellulose (80% final volume) was added. Blood was drawn and pooled from 5 mice at each time point via heart puncture and was placed in a 15 mL centrifuge tube containing heparin. The plasma stored in 200 μL aliquots at −80° C. until assayed.
Plasma was thawed at room temperature and then 400 μL of acetonitrile was added to each vial and vortexed. Following centrifugation the supernatant was removed and evaporated in a nitrogen evaporator at 48° C. Residue was then resolublized in 200 μL of a 75% water/25% CH3CN solution for HPLC analysis. HPLC analysis used a Zorbax RX-C8 column (4.6×150 mm) with a 25 mM potassium phosphate buffer with 0.1% TFA, pH 3.0. Mobile phases consisted of varying percentages of two buffer mixtures: Buffer A—90% buffer, 10% CH3CN, and Buffer B—30% buffer, 70% CH3CN.
A standard curve ranging from 0.5 to 50 μg/mL was used for each drug tested. Ten times final concentration solutions of drug in water were prepared from stock solutions of 1 mg/mL drug in DMSO. The final 1:10 dilution was then done in mouse plasma obtained from mice described above.

Data set [7] is described as follows: Rat blood levels after IV dosing. Type of data set: in vivo. The settings on record: plasma, rats, IV dose of 10 mg/kg; for half-life: read-out: T 1/2 (half life) (converted). As to the method:
as §2

The conditions of data set [8]: as disclosed by Vander Roest et al., ICAAC 1997, relative to related polar substituted derivatives; cited from earlier work.
Data set [9] deals with HIV infected lymphocyte derived CEM cells. Conditions: as disclosed by Hagen et al., J. Med. Chem. 1997; cited from earlier work.
The mark [10] stands for this setting: read-out: Antiviral Efficacy TC50, uninfected CEM cells.
Where [11] appears, read: recombinant HIV-1 protease, read-out: Inhib of HIV Protease KI.
Where [12] appears, read: Human immunodeficiency virus 1, CCRF-CEM.

For the compound “3-(2-Amino-5-isopropyl-benzothiazol-6-yl-sulfanyl)-6-[2-(4-fluoro-phenyl)-ethyl]-phenethyl-4-hydroxy-6-isopropyl-5,6-dihydro-pyran-2-one [Example 16]”, the CC50 with uninfected CEM cells is 114 µM. In [1], the “TI (therapeutic index, TC50/EC50)” value is 10.4. Besides, the EC50 in data set [1] (HIV infected CEM cells) was 11 µM.
Regarding “3-(4-Amino-2-tert-butyl-5-methyl-phenylsulfanyl)-6-(2-furan-3-yl-ethyl)-4-hydroxy-6-isopropyl-5,6-dihydro-pyran-2-one [Example 36]”, in the data set on uninfected CEM cells (setting [10]), the CC50 was determined as 170 µM. Moreover, the “TI (therapeutic index, TC50/EC50)” value in [1] was found to be 77. Also, the EC50 in data set [1] (HIV infected CEM cells) worked out at 2.2 µM. Also, the Ki in data set [2] (setting [11]) was 1700 pM.
For the compound `Cc1cc(SC2=C(O)C[C@@](CCc3ccsc3)(C(C)C)OC2=O)c(C(C)(C)C)cc1CO` [Example 12, (S)-3-(2-tert-Butyl-4-hydroxymethyl-5-methyl-phenylsulfanyl)-4-hydroxy-6-isopropyl-6-(2-thiophen-3-yl-ethyl)-5,6-dihydro-pyran-2-one], the values for the Cmax in data set [3], in [5] and in data set [6] were 149 µM, 30 µM and 95 µM, respectively. Also, the half-life was 1.75 h in data set [3], 11.5 h in data set [5], 9.5 h in data set [6] and 12 h in [7]. Besides, in data set [4], the CC50 came out at 91 µM. Besides, the “TI (therapeutic index, TC50/EC50)” value in data set [1] is given as 650. In data set [1] (setting [12]), the EC50 stood at 0.14 µM. Moreover, the Ki in [2] (setting [11]) was found to be 70 pM. In addition, the C0 in data set [7] is 160 µM.
In the case of `Cc1cc(SC2=C(O)CC(CCc3cc[nH]n3)(C(C)C)OC2=O)c(C(C)(C)C)cc1N` (stereo not shown) [Example 41], the CC50 in the data set on uninfected CEM cells (setting [10]) was 195 µM. For the same compound, the “TI (therapeutic index, TC50/EC50)” value in [1] amounted to 10. Moreover, the EC50 in [1] (HIV infected CEM cells) is 20 µM. Moreover, the Ki in data set [2] (setting [11]) amounted to 6500 pM.
As for `Cc1cc(SC2=C(O)CC(CCc3ccc(N)cc3)(C(C)C)OC2=O)c(C(C)(C)C)cc1CO` (stereo not shown) [Reference Agent 1, reference compound], the Cmax amounted to 140 µM in [3], 16 µM in data set [5] and 23 µM in [6]. Besides, the half-life in data set [3] was 1.25 h; in data set [5], 3.4 h; in [6] it was 2.2 h; in [7] it was 3.7 h. The CC50 in data set [4] was > 100 µM. The pharmacokinetics in mice entry in data set [8] is “comparatively good pharmacokinetics in mice”. Further, the antiviral activity entry in [9] is “particularly good antiviral activity”. For the same compound, in data set [1], the “TI (therapeutic index, TC50/EC50)” value is given as >200. Moreover, in [1] (setting [12]), the EC50 was 0.5 µM. The Ki in data set [2] came out at 430 pM. Besides, the C0 in [7] was found to be 86 µM.
As for `Cc1cc(SC2=C(O)CC(CCc3ccc(O)cc3)(C(C)C)OC2=O)c(C(C)(C)C)cc1CO` (stereo not shown) [Reference Agent 2, reference compound], the values for the Cmax in [3], in [5] and in data set [6] were 40 µM, 3.4 µM and 17 µM, respectively. Also, the half-life in data set [3] is 0.52 h; in data set [5] it was 0.55 h; in data set [6], 2 h; in data set [7] it was 3.9 h. For the same compound, in data set [4], the CC50 was > 100 µM. Besides, in [8], the pharmacokinetics in mice result is “comparatively good pharmacokinetics in mice”. The antiviral activity entry in [9] is reported as “particularly good antiviral activity”. Also, the “TI (therapeutic index, TC50/EC50)” value in data set [1] was >166. Also, the EC50 in [1] (setting [12]) amounted to 0.6 µM. Besides, the Ki in data set [2] (setting [11]) is 220 pM. The C0 in [7] came out at 100 µM.
With “(S)-N-[6-tert-Butyl-5-(4-hydroxy-6-isopropyl-2-oxo-6-[2-(4-hydroxy-phenyl)ethyl]-5,6-dihydro-2H-pyran-3-ylsulfanyl)-indolin-1yl]-(4-cyanophenyl)sulfonamide [Example 70]”, the CC50 in the data set on uninfected CEM cells (setting [10]) is 8 µM. For the same compound, in data set [1], the “TI (therapeutic index, TC50/EC50)” value worked out at 6. Also, the EC50 in [1] (HIV infected CEM cells) was determined as 1.3 µM. Further, the Ki in data set [2] (setting [11]) was 820 pM.
